In patent publication US20110224242A1, “STYRLYQUINOLINES, THEIR PROCESS OF PREPARATION AND THEIR THERAPEUTIC USES” (BIOALLIANCE PHARMA, priority 2008, published 2011):
Read-outs that look alike come from different tables or passages of the source.

Experiments:
[1] = biological target: T1, HBX2 HIV integrase (Human immunodeficiency virus type 1 group M subtype B, UniProt P04585); assay: 3' LTR processing assay; format: biochemical
T1 construct: contains the cDNA encoding the HBX2 HIV integrase; His tag (N, cleaved yes); made in house; host or cells: Escherichia coli BL21 (DE3)
Procedure: (§1) The pET-15b-IN plasmid contains the cDNA encoding the HBX2 HIV integrase. His-tagged integrase protein was overexpressed in Escherichia coli BL21 (DE3) and purified under native conditions. Briefly, at an OD of 0.8, fusion protein expression was induced in bacterial cultures by the addition of IPTG (1 mM). Cultures were incubated for 3 h at 37° C., of ter which cells were centrifuged. The cell pellet was resuspended in ice-cold buffer A [20 mM Ths-HCl (pH 8), 1 M NaCl, 4 mM β-mercaptoethanol, and 5 mM imidazole], treated with lysozyme for 1 h on ice, and sonicated. After centrifugation (30 min at 10 000 rpm), the supernatant was filtered (0.45 μm) and incubated for at least 2 h with Ni-NTA agarose beads (Pharmacia). The beads were washed twice with 10 volumes of buffer A, 10 volumes of buffer A with 50 mM imidazole, and 10 volumes of buffer A with 100 mM imidazole. His-tagged integrase was then eluted with buffer A supplemented with 50 μM ZnSO4 and 1 M imidazole. The integrase concentration was adjusted to 0.1 mg/mL in buffer A. The fusion protein was cleaved using thrombin and dialyzed overnight against 20 mM Ths-HCl (pH 8), 1 M NaCl, and 4 mM (3-mercaptoethanol. After removal of biotinylated thrombin by incubation with streptavidin-agarose magnetic beads (Novagen, Madison, Wis.), a second dialysis was performed for 2 h against 20 mM Ths-HCl (pH 8), 1 M NaCl, 4 mM mercaptoethanol, and 20% (v/v) ethylene glycol. Fractions were aliquoted and rapidly frozen at −80° C.
Oligonucleotides U5B (5′-[…]-3′), U5B-2 (5′-GTGTGGAAAATCTCTAGCA-3′), U5A (5′-[…]-3′) were purchased from Eurogentec (Liege, Belgium) and further purified on an 18% denaturing acrylamide/urea gel. For processing, strand transfer, 100 pmol of U5B, U5B-2, respectively, were radiolabeled using T4 polynucleotide kinase and 50 μCi of [γ-32P]ATP (3000 Ci/mmol). The T4 kinase was heat inactivated, and unincorporated nucleotides were removed using a Sephadex G-10 column (GE Healthcare). NaCl was added to a final concentration of 0.1 M, and complementary unlabeled strand USA was added to either U5B or U5B-2. The mixture was heated to 90° C. for 3 min, and the DNA was annealed by slow cooling.
Processing reaction was performed using U5A-U5B, in buffer containing 20 mM Tris (pH 7.2), 50 mM NaCl, 10 mM DTT, and 10 mM MgCl2. […] The reactions were stopped by phenol/chloroform extraction, and DNA products were precipitated with ethanol. The products were separated in TE containing 7 M urea and electrophoresed on an 18% denaturing acrylamide/urea gel. Gels were analyzed using a STORM Molecular Dynamics phosphorimager and quantified with Image Quant™ 4.1 software.

[2] = tested on: wild type HIV-1 virus (NL 4.3 strains); assay: Antiviral activity assay on Hela P4 cells (beta-galactosidase, CPRG); format: cell-based; conditions: read-out: P4 IC50
Procedure: The antiviral activity is determined by infecting HelaP4 cells with a wild type HIV-1 virus (NL 4.3 strains at 3 ng) on cells in presence or absence of drugs. A serial dilution of drugs is done to evaluate the EC50. The effective concentration is the concentration of product at which virus replication is inhibited by 50 percent. After 48 hours incubation, the quantification is done by the evaluation of β-Galactosidase produced by the infected Hela P4 cells. The viral activity is evaluated by colorimethc assay, CPRG, followed by plate reading at 570 nm with a reference of 690 nm. The CPRG test is a colorimetric assay which allows to quantity the β-galactosidase produced by HIV-1 infected indicator cells (the β-Gal gene being under the control of the HIV-1 LTR).

[3] = Stability in Hepes buffer 0.5 M pH 7.5 (UV spectrophotometry); format: physicochemical; conditions: HEPES 0.5 M pH 7.5, 37°, 50 μM (SQE94 and 79 at 25 μM)
Procedure: 2.1. Hepes Buffer 0.5M, pH 7.5. 16 μl of drug at 25 mM, in 8 ml of Hepes Buffer. Different time points were done, Oh, 2 h, 4 h, 24 h, and 48 h.
Stability of the compounds was performed in HEPES Buffer 0.5 M (pH 7.5) at 37 O, at a concentration of 50 μM. Compounds SQE94 and 79 were tested at a concentration of 25 μM to avoid parasite precipitation phenomena. Typically, stock solutions of compounds in DMSO (25 mM) were diluted in HEPES Buffer. Dilutions were stored at 37° C., protected from light. Sampling was done at different time points. Samples were analyzed on an UV-spectrophotometer using a wavelength scan between 200 and 700 nm. Superposition of UV-spectra gives the qualitative aspect of the stability of the drug. Based on the Beer-Lambert law, percentage of degradation of the drug over time was calculated, when placed at the maximum absorption wavelength.

[4] = tested on: wild type HIV-1 virus (NL 4.3 strains); assay: Antiviral activity assay CEM cells (p24 ELISA); format: cell-based; conditions: Human immunodeficiency virus 1, CCRF-CEM, read-out: CEM
Procedure: The activity is determined by infecting CEM cells with a wild type HIV-1 virus (NL 4.3 strains at 3 ng) on cells in presence or absence of drugs. A serial dilution of drugs is done to evaluate the EC50. […] After 48 hours incubation, the quantification is done by the evaluation of the viral protein p24 with a commercial Elisa Kit. P24 is a protein essential to the replication virus cycle. The quantification of this enzyme is proportional to the amount of virus produced by the infected cells.

[5] = in vitro; format: cell-based; conditions: human
Procedure: The cytotoxicity of compounds was evaluated using un-infected and infected Hel_a-P4 cell and CEM leukemia cells. CEM cell were obtained from the American Type Tissue Collection (Rockville, Md.).
A serial dilution of drugs is done to evaluate the cytotoxicity concentration and is identified by CC50 (concentration of drug which induces 50% of cytotoxicity)
The HeLa-P4 was cultured in the presence or absence of compounds for 2 days. After this time period, cells were cultivated with MTT for 3 hours, further the medium is removed. And the lysis buffer is incubated for 1 hour, followed by plate reading at 540 nm in a microplate reader.

[6] = Solubility of compound SQE94 in pH-buffers; format: physicochemical; conditions: compound alone, room temperature, 24 h
Procedure: Solubility of compound SQE94 was determined in pH-buffers at pH values of 5, 6 and 7. 10 mg of SQE94 are added to 10 ml of each pH-buffer. Each solution is stirred at room temperature, away from light, for 24 h, then centrifugated. The amount of dissolved compound is determined by HPLC analysis.

[7] = Chemical stability at pH between 1 and 7; format: physicochemical
[8] = Stability by HPLC in PEG400 and Vitamine E-TPGS/PEG 400 mixtures; format: physicochemical
Procedure: The second stability assay consists in the assessment according to standard HPLC analysis protocols over 24 hrs in PEG400 and Vitamine E-TPGS/PEG 400 mixtures, by focusing on the evolution of the concentration and peak purity of the compound. Compounds were dissolved in appropriate amounts of solvent and let under stirring protected from light for 24 hrs. Aliquots were transferred into eppendorfs and centrifuged at 10 000 g for 10 min. Supernatants were collected and appropriately diluted in DMSO/mobile phase mixtures before HPLC analysis. The Waters HPLC analysis system equipped with an ultraviolet detector and a Waters Symmetry Shield C18 column of 2.1 mm×50 mm ([…]) was used. A mobile phase of water/acetic acid 0.1% (Solvant A): Acetonitrile/acetic acid 0.1% (solvent B) mixture or a water/trifluoroacetic acid 0.1% (Solvant A): Acetonitrile/trifluoroacetic acid 0.1% (solvent B) mixture in the case of compound FZ41 was pumped according to a binary gradient described below, at a flow rate of 0.4 ml/min.

[9] = biological target: T1, HBX2 HIV integrase; assay: Strand transfer assay; format: biochemical
Procedure: as §1, with “The integrase concentration was adjusted to 0.1 mg/mL in buffer A. The fusion protein was cleaved using thrombin and dialyzed overnight against 20 mM Ths-HCl (pH 8), 1 M NaCl, and 4 mM (3-mercaptoethanol. After removal of biotinylated thrombin by incubation with streptavidin-agarose magnetic beads (Novagen, Madison, Wis.), a second dialysis was performed for 2 h against 20 mM Ths-HCl (pH 8), 1 M NaCl, 4 mM mercaptoethanol, and 20% (v/v) ethylene glycol. Fractions were aliquoted and rapidly frozen at −80° C.” left out
Processing, strand transfer reactions were performed using U5A-U5B-2, in buffer containing 20 mM Tris (pH 7.2), 50 mM NaCl, 10 mM DTT, 1 OmM MgCl2. […] Gels were analyzed using a STORM Molecular Dynamics phosphorimager and quantified with Image Quant™ 4.1 software.

[10] = Human immunodeficiency virus 1, HeLaP4, HeLa P4 cells, HIV-1 NL 4.3, 48 hours
[11] = CEM cells, HIV-1 NL 4.3, 48 hours, p24
[12] = Human immunodeficiency virus 1, HeLaP4, 48 h

Compound	IC50 [1]	IC50 [2, 10]	% of degradation ([3]; 2 hrs)	% of degradation ([3]; 4 hrs)	% of degradation ([3]; 24 hrs)	EC50 [4, 11]	IC50 at 2 days [5]	Dissolved compound SQE94 ([6]; pH5 buffer)	Dissolved compound SQE94 ([6]; pH6 buffer)	Dissolved compound SQE94 ([6]; pH7 buffer)	chemical profile stability ([7]; over 24 hrs at pH between 1 and 7)	degradation ([8]; over 24 hrs at room temperature in several mixtures of excipients)	IC50 [9]	degradation rate ([7]; within less than 24 hrs, pH between 1 and 7)	degradation ([8]; within only 3 hrs, mixtures of excipients)	IC50 [2, 12]	melting point	EC50 ([4]; 48 h)
CC(=O)c1ccc(O)c2nc(/C=C/c3cc(O)c(O)c([N+](=O)[O-])c3)ccc12 [SQE79, 1-{2-[2(E)-(3,4-dihydroxy, 5-nitrophenyl)-vinyl]-8-hydroxy-quinolin-5-yl}-ethanone]	0.225 µM	4.6 µM	19.2%	26.9%	42.9%	0.4 µM	4.2 µM	–	–	–	–	–	–	–	–	–	–	–
CC(=O)c1ccc(O)c2nc(/C=C/c3cc(O)c(O)cc3O)ccc12 [SQE74, 1-{2-[2(E)-(2,4,5-thhydroxyphenyl)-vinyl]-8-hydroxy-quinolin-5-yl}-ethanone]	0.225 µM	11.8 µM	17.2%	26.1%	24.1%	0.35 µM	11.7 µM	–	–	–	–	–	–	–	–	–	–	–
COc1cc(/C=C/c2ccc3c(C(C)=O)ccc(O)c3n2)cc([N+](=O)[O-])c1O [SQE94, 1-{2-[2(E)-(3-nitro, 4-hydroxy, 5-methoxyphenyl)-vinyl]-8-hydroxy-quinolin-5-yl}-ethanone]	0.724 µM	1.6 µM	<5%	8.2%	30.8%	–	56 µM	1.4 µg/mL	1.4 µg/mL	5.5 µg/mL	very stable chemical profiles	less than 10%	–	–	–	–	–	–
COc1cc(/C=C/c2ccc3ccc(C(=O)O)c(O)c3n2)cc(O)c1O [FZ41, reference compound]	0.7 µM	5 µM	31.1%	59.6%	64.6%	25 µM	> 100 µM	–	–	–	–	–	1.7 µM	50-60%	at least 10%	–	–	–
CC(=O)c1ccc(O)c2nc(/C=C/c3cc(O)c(O)c(Cl)c3)ccc12 [SQE86, (E)-1-(2-(3-chloro-4,5-dihydroxystyryl)-8-hydroxyquinolin-5-yl)ethanone]	0.53 µM	–	12.1%	12.5%	22.4%	–	15 µM	–	–	–	–	–	–	–	–	1 µM	256 to 258 °C	0.5 µM
CC(=O)c1ccc(O)c2nc(/C=C/c3ccc(O)c(C(=O)O)c3)ccc12 [SQE89, (E)-5-(2-(5-acetyl-8-hydroxyquinolin-2-yl)vinyl)-2-hydroxybenzoic acid]	0.56 µM	–	<5%	<5%	<5%	–	12.6 µM	–	–	–	–	–	–	–	–	1 µM	266 to 268 °C	–
CC(=O)c1ccc(O)c2nc(/C=C/c3ccc(C(=O)O)cc3[N+](=O)[O-])ccc12 [SQE96, 4-[2(E)-(5-Acetyl-8-hydroxy-quinolin-2-yl)-vinyl]-5-nitro-benzoic acid]	2.3 µM	40 µM	<5%	<5%	<5%	–	> 100 µM	–	–	–	–	–	–	–	–	–	–	–
CC(=O)c1ccc(O)c2nc(/C=C/c3cc(O)c(O)c(O)c3)ccc12 [SQE75, 1-{2-[2(E)-(3,4,5-thhydroxyphenyl)-vinyl]-8-hydroxy-quinolin-5-yl}-ethanone]	0.51 µM	9.6 µM	15.7%	17.5%	18.7%	24.7 µM	> 100 µM	–	–	–	–	–	–	–	–	–	–	–
